Test results as given in ChEMBL document CHEMBL1275550, “In vitro activity of doripenem, a carbapenem for the treatment of challenging infections caused by gram-negative bacteria, against recent clinical isolates from the United States” (2008).
Converted amounts (≈) assume the structure as drawn.

Assays:
Enterobacteriaceae [1] = assay: Antimicrobial activity against Ceftazidime non-susceptible Enterobacteriaceae by broth microdilution method; type: functional
Enterobacteriaceae [2] = assay: Antimicrobial activity against ceftazidime-susceptible Enterobacteriaceae assessed as susceptible isolate by broth microdilution method; type: functional
Enterobacteriaceae [3] = assay: Antimicrobial activity against ceftazidime-susceptible Enterobacteriaceae assessed as intermediate isolate by broth microdilution method; type: functional
Enterobacteriaceae [4] = assay: Antimicrobial activity against ceftazidime-susceptible Enterobacteriaceae assessed as resistant isolate by broth microdilution method; type: functional
Enterobacteriaceae [5] = assay: Antimicrobial activity against Ceftazidime non-susceptible Enterobacteriaceae assessed as susceptible isolate by broth microdilution method; type: functional
Enterobacteriaceae [6] = assay: Antimicrobial activity against Ceftazidime non-susceptible Enterobacteriaceae assessed as intermediate isolate by broth microdilution method; type: functional
Enterobacteriaceae [7] = assay: Antimicrobial activity against Ceftazidime non-susceptible Enterobacteriaceae assessed as resistant isolate by broth microdilution method; type: functional
Escherichia coli [8] = assay: Antimicrobial activity against ESBL producing Escherichia coli by broth microdilution method; type: functional
Escherichia coli [9] = assay: Antimicrobial activity against Non-ESBL Escherichia coli assessed as susceptible isolate by broth microdilution method; type: functional
Escherichia coli [10] = assay: Antimicrobial activity against Non-ESBL Escherichia coli assessed as intermediate isolate by broth microdilution method; type: functional
Escherichia coli [11] = assay: Antimicrobial activity against ESBL producing Escherichia coli assessed as susceptible isolate by broth microdilution method; type: functional
Escherichia coli [12] = assay: Antimicrobial activity against ESBL producing Escherichia coli assessed as intermediate isolate by broth microdilution method; type: functional
Escherichia coli [13] = assay: Antimicrobial activity against ESBL producing Escherichia coli assessed as resistant isolate by broth microdilution method; type: functional
Klebsiella pneumoniae [14] = assay: Antimicrobial activity against Non-ESBL Klebsiella pneumoniae by broth microdilution method; type: functional
Klebsiella pneumoniae [15] = assay: Antimicrobial activity against ESBL producing Klebsiella pneumoniae by broth microdilution method; type: functional
Klebsiella pneumoniae [16] = assay: Antimicrobial activity against Non-ESBL Klebsiella pneumoniae assessed as susceptible isolate by broth microdilution method; type: functional
Klebsiella pneumoniae [17] = assay: Antimicrobial activity against Non-ESBL Klebsiella pneumoniae assessed as intermediate isolate by broth microdilution method; type: functional
Klebsiella pneumoniae [18] = assay: Antimicrobial activity against ESBL producing Klebsiella pneumoniae assessed as susceptible isolate by broth microdilution method; type: functional
Klebsiella pneumoniae [19] = assay: Antimicrobial activity against ESBL producing Klebsiella pneumoniae assessed as intermediate isolate by broth microdilution method; type: functional
Klebsiella pneumoniae [20] = assay: Antimicrobial activity against ESBL producing Klebsiella pneumoniae assessed as resistant isolate by broth microdilution method; type: functional
Proteus mirabilis [21] = assay: Antimicrobial activity against Non-ESBL Proteus mirabilis by broth microdilution method; type: functional
Proteus mirabilis [22] = assay: Antimicrobial activity against ESBL producing Proteus mirabilis by broth microdilution method; type: functional
Pseudomonas aeruginosa [23] = assay: Antimicrobial activity against Pseudomonas aeruginosa isolated from non-ICU patient by broth microdilution method; type: functional
Pseudomonas aeruginosa [24] = assay: Antimicrobial activity against Pseudomonas aeruginosa isolated from ICU patient by broth microdilution method; type: functional
Proteus mirabilis [25] = assay: Antimicrobial activity against Non-ESBL Proteus mirabilis assessed as susceptible isolate by broth microdilution method; type: functional
Proteus mirabilis [26] = assay: Antimicrobial activity against Non-ESBL Proteus mirabilis assessed as intermediate isolate by broth microdilution method; type: functional
Proteus mirabilis [27] = assay: Antimicrobial activity against ESBL producing Proteus mirabilis assessed as susceptible isolate by broth microdilution method; type: functional
Proteus mirabilis [28] = assay: Antimicrobial activity against ESBL producing Proteus mirabilis assessed as intermediate isolate by broth microdilution method; type: functional
Citrobacter [29] = assay: Antimicrobial activity against Citrobacter with nonderepressed AmpC beta-lactamsae by broth microdilution method; type: functional
Citrobacter [30] = assay: Antimicrobial activity against Citrobacter with derepressed AmpC beta-lactamsae by broth microdilution method; type: functional
Citrobacter [31] = assay: Antimicrobial activity against Citrobacter with nonderepressed AmpC beta-lactamsae assessed as susceptible isolate by broth microdilution method; type: functional
Citrobacter [32] = assay: Antimicrobial activity against Citrobacter with nonderepressed AmpC beta-lactamsae assessed as intermediate isolate by broth microdilution method; type: functional
Citrobacter [33] = assay: Antimicrobial activity against Citrobacter with derepressed AmpC beta-lactamsae assessed as susceptible isolate by broth microdilution method; type: functional
Citrobacter [34] = assay: Antimicrobial activity against Citrobacter with derepressed AmpC beta-lactamsae assessed as intermediate isolate by broth microdilution method; type: functional
Serratia marcescens [35] = assay: Antimicrobial activity against Ceftazidime non-susceptible Serratia marcescens by broth microdilution method; type: functional
Serratia marcescens [36] = assay: Antimicrobial activity against Ceftazidime susceptible Serratia marcescens assessed as susceptible isolate by broth microdilution method; type: functional
Serratia marcescens [37] = assay: Antimicrobial activity against Ceftazidime susceptible Serratia marcescens assessed as intermediate isolate by broth microdilution method; type: functional
Serratia marcescens [38] = assay: Antimicrobial activity against Ceftazidime non-susceptible Serratia marcescens assessed as susceptible isolate by broth microdilution method; type: functional
Serratia marcescens [39] = assay: Antimicrobial activity against Ceftazidime non-susceptible Serratia marcescens assessed as intermediate isolate by broth microdilution method; type: functional
Pseudomonas aeruginosa [40] = assay: Antimicrobial activity against Ceftazidime susceptible Pseudomonas aeruginosa by broth microdilution method; type: functional
Pseudomonas aeruginosa [41] = assay: Antimicrobial activity against imipenem non-susceptible Pseudomonas aeruginosa by broth microdilution method; type: functional
Pseudomonas aeruginosa [42] = assay: Antimicrobial activity against Ceftazidime susceptible Pseudomonas aeruginosa assessed as susceptible isolate by broth microdilution method; type: functional
Pseudomonas aeruginosa [43] = assay: Antimicrobial activity against Ceftazidime susceptible Pseudomonas aeruginosa assessed as intermediate isolate by broth microdilution method; type: functional
Pseudomonas aeruginosa [44] = assay: Antimicrobial activity against Ceftazidime susceptible Pseudomonas aeruginosa assessed as resistant isolate by broth microdilution method; type: functional
Pseudomonas aeruginosa [45] = assay: Antimicrobial activity against Ceftazidime non-susceptible Pseudomonas aeruginosa assessed as susceptible isolate by broth microdilution method; type: functional
Pseudomonas aeruginosa [46] = assay: Antimicrobial activity against Ceftazidime non-susceptible Pseudomonas aeruginosa assessed as intermediate isolate by broth microdilution method; type: functional
Pseudomonas aeruginosa [47] = assay: Antimicrobial activity against Ceftazidime non-susceptible Pseudomonas aeruginosa assessed as resistant isolate by broth microdilution method; type: functional
Pseudomonas aeruginosa [48] = assay: Antimicrobial activity against imipenem susceptible Pseudomonas aeruginosa assessed as susceptible isolate by broth microdilution method; type: functional
Pseudomonas aeruginosa [49] = assay: Antimicrobial activity against imipenem susceptible Pseudomonas aeruginosa assessed as intermediate isolate by broth microdilution method; type: functional
Pseudomonas aeruginosa [50] = assay: Antimicrobial activity against imipenem susceptible Pseudomonas aeruginosa assessed as resistant isolate by broth microdilution method; type: functional
Pseudomonas aeruginosa [51] = assay: Antimicrobial activity against imipenem non-susceptible Pseudomonas aeruginosa assessed as susceptible isolate by broth microdilution method; type: functional
Pseudomonas aeruginosa [52] = assay: Antimicrobial activity against imipenem non-susceptible Pseudomonas aeruginosa assessed as intermediate isolate by broth microdilution method; type: functional
Pseudomonas aeruginosa [53] = assay: Antimicrobial activity against imipenem non-susceptible Pseudomonas aeruginosa assessed as resistant isolate by broth microdilution method; type: functional
Acinetobacter [54] = assay: Antimicrobial activity against imipenem susceptible Acinetobacter by broth microdilution method; type: functional
Acinetobacter [55] = assay: Antimicrobial activity against imipenem non-susceptible Acinetobacter by broth microdilution method; type: functional
Acinetobacter [56] = assay: Antimicrobial activity against imipenem susceptible Acinetobacter assessed as susceptible isolate by broth microdilution method; type: functional
Acinetobacter [57] = assay: Antimicrobial activity against imipenem susceptible Acinetobacter assessed as intermediate isolate by broth microdilution method; type: functional
Acinetobacter [58] = assay: Antimicrobial activity against imipenem susceptible Acinetobacter assessed as resistant isolate by broth microdilution method; type: functional
Acinetobacter [59] = assay: Antimicrobial activity against imipenem non-susceptible Acinetobacter assessed as susceptible isolate by broth microdilution method; type: functional
Acinetobacter [60] = assay: Antimicrobial activity against imipenem non-susceptible Acinetobacter assessed as intermediate isolate by broth microdilution method; type: functional
Acinetobacter [61] = assay: Antimicrobial activity against imipenem non-susceptible Acinetobacter assessed as resistant isolate by broth microdilution method; type: functional
Pseudomonas aeruginosa [62] = assay: Antimicrobial activity against Pseudomonas aeruginosa isolated from patient by broth microdilution method
Pseudomonas aeruginosa [63] = assay: Antimicrobial activity against Pseudomonas aeruginosa isolated from non-ICU patient by broth microdilution method
Pseudomonas aeruginosa [64] = assay: Antimicrobial activity against Pseudomonas aeruginosa isolated from ICU patient assessed as resistant isolate by broth microdilution method
Pseudomonas aeruginosa [65] = assay: Antimicrobial activity against Pseudomonas aeruginosa isolated from ICU patient assessed as susceptible isolate by broth microdilution method
Pseudomonas aeruginosa [66] = assay: Antimicrobial activity against Pseudomonas aeruginosa isolated from ICU patient assessed as intermediate isolate by broth microdilution method
Pseudomonas aeruginosa [67] = assay: Antimicrobial activity against Pseudomonas aeruginosa isolated from non-ICU patient assessed as resistant isolate by broth microdilution method

In the case of `CO/N=C(\C(=O)N[C@@H]1C(=O)N2C(C(=O)[O-])=C(C[N+]3(C)CCCC3)CS[C@H]12)c1csc(N)n1`, the MIC50 (Enterobacteriaceae [1]) is reported as 2 µg/mL (≈ 4.16 µM), the MIC90 (Enterobacteriaceae [1]) is reported as 32 µg/mL (≈ 66.6 µM) and the Activity (Enterobacteriaceae [2]) is reported as 99.8%. It also gave an Activity (Enterobacteriaceae [3]) of 0%, an Activity (Enterobacteriaceae [4]) of 0.1% and an Activity (Enterobacteriaceae [5]) of 82.4%. It also gave an Activity (Enterobacteriaceae [6]) of 5.6%, an Activity (Enterobacteriaceae [7]) of 12% and an MIC50 (Escherichia coli [8]) of 32 µg/mL (≈ 66.6 µM). The MIC90 (Escherichia coli [8]) was greater than 32 µg/mL, the Activity (Escherichia coli [9]) was 99.8% and the Activity (Escherichia coli [10]) was 0.1%. It also gave an Activity (Escherichia coli [11]) of 40%, an Activity (Escherichia coli [12]) of 3.3% and an Activity (Escherichia coli [13]) of 56.7%. It also gave an MIC50 (Klebsiella pneumoniae [14]) of 0.03 µg/mL (≈ 0.0624 µM), an MIC90 (Klebsiella pneumoniae [14]) of 0.06 µg/mL (≈ 0.125 µM) and an MIC50 (Klebsiella pneumoniae [15]) of 8 µg/mL (≈ 16.6 µM). The MIC90 (Klebsiella pneumoniae [15]) was greater than 32 µg/mL, the Activity (Klebsiella pneumoniae [16]) was 99.7% and the Activity (Klebsiella pneumoniae [17]) was 0.2%. It also gave an Activity (Klebsiella pneumoniae [18]) of 68.2%, an Activity (Klebsiella pneumoniae [19]) of 2.3% and an Activity (Klebsiella pneumoniae [20]) of 29.5%. For the same compound, the MIC50 (Proteus mirabilis [21]) was 0.03 µg/mL (≈ 0.0624 µM), the MIC90 (Proteus mirabilis [21]) was 0.06 µg/mL (≈ 0.125 µM) and the MIC (Proteus mirabilis [22]) was 1 µg/mL (≈ 2.08 µM). For the same compound, the MIC50 (Pseudomonas aeruginosa [23]) was 4 µg/mL (≈ 8.32 µM), the MIC90 (Pseudomonas aeruginosa [23]) was 16 µg/mL (≈ 33.3 µM) and the MIC50 (Pseudomonas aeruginosa [24]) was 4 µg/mL (≈ 8.32 µM). For the same compound, the MIC90 (Pseudomonas aeruginosa [24]) was 16 µg/mL (≈ 33.3 µM), the Activity (Proteus mirabilis [25]) was 99.7% and the Activity (Proteus mirabilis [26]) was 0.2%. The Activity (Proteus mirabilis [27]) was 100%, the Activity (Proteus mirabilis [28]) was 0% and the MIC50 (Citrobacter [29]) was 0.03 µg/mL (≈ 0.0624 µM). It also gave an MIC90 (Citrobacter [29]) of 0.06 µg/mL (≈ 0.125 µM), an MIC50 (Citrobacter [30]) of 1 µg/mL (≈ 2.08 µM) and an MIC90 (Citrobacter [30]) of 2 µg/mL (≈ 4.16 µM). It also gave an Activity (Citrobacter [31]) of 99.6%, an Activity (Citrobacter [32]) of 0.2% and an Activity (Citrobacter [33]) of 100%. The Activity (Citrobacter [34]) was 0%, the MIC50 (Serratia marcescens [35]) was 4 µg/mL (≈ 8.32 µM) and the MIC90 (Serratia marcescens [35]) was 16 µg/mL (≈ 33.3 µM). The Activity (Serratia marcescens [36]) was 100%, the Activity (Serratia marcescens [37]) was 0% and the Activity (Serratia marcescens [38]) was 80%. The Activity (Serratia marcescens [39]) was 10%, the MIC50 (Pseudomonas aeruginosa [40]) was 2 µg/mL (≈ 4.16 µM) and the MIC90 (Pseudomonas aeruginosa [40]) was 8 µg/mL (≈ 16.6 µM). It also gave an MIC50 (Pseudomonas aeruginosa [41]) of 8 µg/mL (≈ 16.6 µM), an MIC90 (Pseudomonas aeruginosa [41]) of 32 µg/mL (≈ 66.6 µM) and an Activity (Pseudomonas aeruginosa [42]) of 95.2%. It also gave an Activity (Pseudomonas aeruginosa [43]) of 3.8%, an Activity (Pseudomonas aeruginosa [44]) of 1% and an Activity (Pseudomonas aeruginosa [45]) of 25.5%. The Activity (Pseudomonas aeruginosa [46]) was 48.2%, the Activity (Pseudomonas aeruginosa [47]) was 26.4% and the Activity (Pseudomonas aeruginosa [48]) was 90.7%. The Activity (Pseudomonas aeruginosa [49]) was 7%, the Activity (Pseudomonas aeruginosa [50]) was 2.2% and the Activity (Pseudomonas aeruginosa [51]) was 72.5%. The Activity (Pseudomonas aeruginosa [52]) was 16.9%, the Activity (Pseudomonas aeruginosa [53]) was 10.6% and the MIC50 (Acinetobacter [54]) was 4 µg/mL (≈ 8.32 µM). It also gave an MIC90 (Acinetobacter [54]) of 32 µg/mL (≈ 66.6 µM), an MIC50 (Acinetobacter [55]) of 32 µg/mL (≈ 66.6 µM) and an MIC90 (Acinetobacter [55]) greater than 32 µg/mL. For the same compound, the Activity (Acinetobacter [56]) was 73.1%, the Activity (Acinetobacter [57]) was 11.8% and the Activity (Acinetobacter [58]) was 15.1%. For the same compound, the Activity (Acinetobacter [59]) was 2%, the Activity (Acinetobacter [60]) was 33.3% and the Activity (Acinetobacter [61]) was 64.7%. The Activity (Pseudomonas aeruginosa [62]) was 8.2%, the Activity (Pseudomonas aeruginosa [63]) was 86.8% and the Activity (Pseudomonas aeruginosa [64]) was 6.5%. The Activity (Pseudomonas aeruginosa [65]) was 79.9%, the Activity (Pseudomonas aeruginosa [66]) was 13.7% and the Activity (Pseudomonas aeruginosa [67]) was 5.1%.
